Consider 20 compounds from patent publication US6750268B2, “Bonding composition” (Kuraray Co., Ltd., priority 1999, dated 2004).

Data set [1] is described as follows: Measurement of pH of acid. Format: physicochemical. The note with it: one part by weight of acid in 99 parts by weight of distilled water. As to the method:
One part by weight of the acid to be measured is mixed with 99 parts by weight of distilled water, and the pH of the resulting mixture is measured with a pH meter (Iuchi's pH meter).

Data set [2] is described as follows: Solubility of a calcium salt of an acid in water. Particulars: for Calcium Salt of Acid: Solubility in water: room temperature, macroscopic check clear or cloudy.
Protocol: Next, powdery calcium carbonate (0.1 mmols) is fed into the test tube, and stirred at room temperature for 10 minutes so that it is reacted with the acid. The resulting solution is macroscopically checked as to whether it is clear or cloudy. The solubility of the calcium salt in the clear solution is above 0.1 M/L, and the acid is marked “x”.
To the cloudy solution in the test tube, 9 ml of distilled water is further added, and stirred at room temperature for 30 minutes. This is again checked macroscopically. […] When it is still cloudy in this condition, the solubility of the calcium salt is below 0.01 M/L, and the acid is marked “O”. In case where the solubility of the calcium salt of the acid tested is numerically represented, test tubes having a proper capacity are prepared, and the process as above is repeated in them. Salt solutions having different concentrations are prepared, and they are macroscopically checked to quantitatively determine the solubility of the salt.
A short description of data set [3]: Solubility of calcium salt of acid in film-forming agent.
Protocol: Next, powdery calcium carbonate (0.1 mmols) is fed into the test tube, and stirred at room temperature for 10 minutes so that it is reacted with the acid to give a calcium salt of the acid. Next, the resulting solution is dried in a drier at 60° C. for 16 hours to remove water, and the 1 ml of a film-forming agent is added to the resulting residue. This is stirred at room temperature for 30 minutes, and the resulting solution is macroscopically checked as to whether it is clear or cloudy. The solubility of the calcium salt in the clear solution is above 0.1 M/L, and the acid is marked “x”.
To the cloudy solution in the test tube, 9 ml of the film-forming agent is further added, and stirred at room temperature for 30 minutes. This is again checked macroscopically. […] When it is still cloudy in this condition, the solubility of the calcium salt is below 0.01 M/L, and the acid is marked “O”. For easily-available calcium salts of acids, such as calcium chloride. calcium nitrate and others, they are not produced in the manner as above, but commercial products are used to measure their solubility.
The nature of data set [4]: Miscibility of film-forming agent with physiological saline solution (uniformity of solution). Format: physicochemical. The note with it: film-forming agent mixed with same weight of physiological saline solution 9 g/L, room temperature, shaken 20 seconds, macroscopically checked. As to the method:
The film-forming agent must be soluble in water. Preferably, at least 5% by weight of the agent are soluble in water. More preferably, it is soluble in water in any ratio. In addition, the water-soluble film-forming agent must be miscible with a physiological saline solution. Whether the film-forming agent is miscible with a physiological saline solution or not can be determined from its phase diagram. […] The uniformity of the resulting solution is determined. Accordingly, the miscibility of the film-forming agent with a physiological saline solution can be determined in a simple manner.
About 1 g of the film-forming agent shown in Table 1 below was metered into a 5 ml glass bottle, and a physiological saline solution with a concentration of 9 g/L of which the weight was the same as that of the film-forming agent was put into the glass bottle, and shaken at room temperature for 20 seconds. The resulting mixture was macroscopically checked as to whether or not it could be a uniform solution.

The mark [5] stands for this setting: film-forming agent 90% by weight HEMA and 10% by weight BMHPE (Table 2).
Where [6] appears, read: film-forming agent 65% HEMA, 30% BMHPE, 5% Bis-GMA (Table 3).

`Cc1ccc(S(=O)(=O)O)cc1` [TSA, p-toluenesulfonic acid, reference compound]: the “pH of Acid” value in data set [1] amounted to 1.4. Also, the “solubility of the calcium salt of the acid in water (in words)” value in data set [2] (description, acid used in place of the polymerizable compound having an acid group) is reported as “too high”. The “Calcium Salt of Acid: Solubility in Film-forming Agent” value (from here on “Calcium Salt … in Film-forming Agent”) in data set [3] (setting [5]) is “◯”.

`C=C(C)C(=O)OCCCCCCCCCCOP(=O)(O)O` [Example 10MDP, 10-methacryloyloxydecyl phosphate]: the “pH of Acid” value in data set [1] was 2.3. In data set [2] (numerical value), the “solubility in water of calcium salt” value is 0.0003 M/L. The “Calcium Salt of Acid: Solubility in water” value in data set [2] was “◯”. The “Calcium Salt … in Film-forming Agent” value in data set [3] (setting [6]) and in data set [3] (setting [5]) was “◯” in each case.

Take `O=C(O)C(=O)O` [oxalic acid]: the “pH of Acid” value in data set [1] stood at 1.3.

In the case of “9-methacryloyloxynonyl phosphate [Example 9MNP]”, the “pH of Acid” value in data set [1] worked out at 2.2. In data set [2], the “Calcium Salt of Acid: Solubility in water” value was “◯”. Also, the “Calcium Salt … in Film-forming Agent” value in data set [3] (setting [6]) and in data set [3] (setting [5]) was “◯” in each case.

Turning to `C=C(C)C(=O)O` [MRA, methacrylic acid, reference compound], the “pH of Acid” value in data set [1] amounted to 2.9. Besides, the “Calcium Salt … in Film-forming Agent” value in data set [3] (setting [5]) was “◯”.

As to `Cl` [hydrochloric acid], in data set [1], the “pH of Acid” value was determined as 0.9.

On to `O=P(O)(O)O` [phosphoric acid], for which the “pH of Acid” value in data set [1] worked out at 1.6.

With `O=C(O)CC(O)(CC(=O)O)C(=O)O` [citric acid], in data set [1], the “pH of Acid” value stood at 1.6.

Regarding “8-methacryloyloxyoctyl phosphate [Example 8MOP]”, the “pH of Acid” value in data set [1] was 2.2.

“dimethacrylate of polyethylene glycol 200 [PE-200-OMR]”: in data set [4], the “Solubility (Uniformity of Reference Solutions)” value was “not dissolved”.

Consider `O=S(=O)(O)O` [sulfuric acid], for which the “pH of Acid” value in data set [1] is listed as 1.1.

Consider `C=C(C)C(=O)OCCOP(=O)(O)O` [Example 2MEP, 2-methacryloyloxyethyl phosphate], for which the “pH of Acid” value in data set [1] was 1.7. Also, in data set [2], the “Calcium Salt of Acid: Solubility in water” value is given as “◯”. Besides, in data set [3] (setting [5]), the “Calcium Salt … in Film-forming Agent” value is reported as “◯”.

For the compound “phenyl-2-methacryloyloxyethyl phosphate [PMEP]”, the “pH of Acid” value in data set [1] was 1.7.

“monomethacrylate of polyethylene glycol 200 [PE-200-OH]”: the “Solubility (Uniformity of Reference Solutions)” value in data set [4] was “dissolved”.

Take `C=C(C)C(=O)OCCCO` [HPMA, hydroxypropyl methacrylate]: the “Solubility (Uniformity of Reference Solutions)” value in data set [4] was “not dissolved”.

Take `C=C(C)C(=O)OCC(O)CO` (centres unmarked) [GLM, glycerol monomethacrylate]: in data set [4], the “Solubility (Uniformity of Reference Solutions)” value is listed as “dissolved”.

In the case of `C=C(C)C(=O)OCC(O)COCCOCC(O)COC(=O)C(=C)C` (centres unmarked) [BMHPE, 1,2-bis(3-methacryloxy-2-hydroxypropoxy)ethane], the “Solubility (Uniformity of Reference Solutions)” value in data set [4] is recorded as “not dissolved”.

For `O=[N+]([O-])O` [nitric acid], in data set [1], the “pH of Acid” value is 0.9.

With “12-methacryloyloxydodecyl phosphate [Example 12MLP]”, in data set [1], the “pH of Acid” value came to 2.3. Moreover, the “Calcium Salt of Acid: Solubility in water” value in data set [2] was “◯”. Besides, the “Calcium Salt … in Film-forming Agent” value in data set [3] (setting [6]) and in data set [3] (setting [5]) was “◯” throughout.

On to `C=C(C)C(=O)OCCO` [HEMA, hydroxyethyl methacrylate], for which the “Solubility (Uniformity of Reference Solutions)” value in data set [4] is “dissolved”.
